The values that follow come from PubChem BioAssay (NCI).

What all share (test): NCI-60 cell line screen, 48 h
The subject of test [1] is M14 melanoma.
In test [2] the test system is HCT-15 colon.
For test [3], the system named is SNB-78 CNS.
Test [4] concerns TK-10 renal.
The subject of test [5] is CAKI-1 renal.
For test [6], the system named is KM12 colon.
Test [7] has as its system HL-60(TB) leukemia.
Test [8] deals with SF-295 CNS.
Test [9] has as its system SK-MEL-5 melanoma.
Test [10] has as its system A498 renal.

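Method: 48-hour compound exposure of cells in 96-well plates, five concentrations, linear interpolation of endpoints. Here, GI50 denotes the concentration required for 50% inhibition of growth. The concentration for full growth arrest is given as TGI.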 Some results are limits rather than exact numbers.

Turning to `c1coc(CNc2ncnc3[nH]ncc23)c1`, the TGI in test [1], in test [2], in test [3], in [4], in test [5] and in test [6] was above 100 µM each time. Further, the TGI in test [7], in test [8], in [9] and in [10] was above 100 µM throughout.
Regarding `Cc1cc(C)n(-c2nsc3ccccc23)n1`, the TGI in test [1], in test [2], in test [3], in test [4], in test [6] and in test [7] was above 100 µM in each case. The molecule further gave a TGI in test [9] above 100 µM.
On to `Cc1ccc2c(c1)C(=O)N(N(C)C)CC(=O)N2`, for which the TGI in test [1], in test [2], in [3], in test [4], in [5] and in test [6] was above 100 µM each time. The TGI in [7], in test [8], in test [9] and in [10] was above 100 µM throughout.
On to `CC(=O)c1ccc2c(c1)c1c(C)c3c[n+](C)ccc3c(C)c1n2C`, for which the TGI is above 100 µM in [2]; 35.3 µM in [3]; above 76 µM in test [5]; above 100 µM in [6]; above 68.6 µM in test [7]; 10.3 µM in test [8]. Further, the TGI in test [9] is above 47.8 µM; in test [10] it was 46.5 µM.
With `CSc1nc(NC2OCC(O)C(O)C2O)c(N)c(=O)[nH]1` (stereo not drawn), the TGI in test [2], in test [3], in [6], in [7], in test [8] and in [9] was above 100 µM throughout. The TGI in [10] is above 100 µM.
With `Fc1ccc(C2CC(c3cccc(Nc4ccncc4)c3)=NN2c2ccc(Cl)cc2)cc1` (stereo not drawn), the GI50 was 1.77 µM in [1]; 1.91 µM in [2]; 1.74 µM in test [4]; 1.39 µM in test [5]; 1.68 µM in test [6]; 1.95 µM in [7]. Also, the GI50 in [8] is 1.8 µM; in test [9], 1.76 µM; in test [10], 1.15 µM. In addition, the TGI is 3.38 µM in test [1]; 3.82 µM in test [2]; 3.37 µM in test [4]; 2.71 µM in test [5]; 3.33 µM in test [6]; 4.22 µM in test [7]. In addition, the TGI in [8] came out at 3.23 µM; in [9] it was 3.16 µM; in test [10], 4.62 µM.
`N#CN=[N+]([O-])c1ccc(C(=O)O)cc1`: the TGI in test [1] was 34 µM; in test [2], 34.1 µM; in test [4], 31.4 µM; in test [6], above 100 µM; in test [8] it was above 100 µM.
Take `Brc1ccc(C2CC(c3cccc4ccccc34)=Nc3ccccc3S2)cc1` (stereo not drawn): the TGI in [1], in [2], in test [3], in test [4], in test [5] and in [6] was above 100 µM throughout. The TGI in [7], in test [8], in [9] and in test [10] was above 100 µM each time.
For `Cc1cc2c(cc1C)OC(=O)CC2`, the TGI in test [1], in test [4], in test [5], in test [6], in test [7] and in test [8] was above 100 µM in each case. Further, the TGI in [9] and in [10] was above 100 µM in each case.
